Source: patent US20240025922A1, “TETRAHYDROPYRIDO[3,4-d]PYRIMIDINES AS HPK1 INHIBITORS” (Merck Patent GmbH, priority 2022, published 2024)

Legend:
[1] = target: HPK1 (SLP76 phosphorylation at Ser376 in Jurkat and EL-4 cells) (Homo sapiens, UniProt Q92918); type: cell-based; conditions: αCD3/αCD28 Dynabeads stimulated cells, pSLP76 (Ser376) detection; read-out: HPK1 pSLP76 IC50
Procedure: Cellular Assay—Phospho-SLP-76 (Ser376).
Inhibition of HPK1 enzymatic activity in cells was determined by detection of SLP76 phosphorylation at Ser376 residue in lysate from Jurkat (human) and EL-4 (mouse) cells. Jurkat and EL-4 cells express both HPK1 and SLP76 naturally. All cells were cultured in RPMI 1640 media containing 10% heat inactivated fetal bovine serum (FBS) and 1×Penicillin-Streptomycin. In either Jurkat or El-4 assay, cells were pre-incubated with test compounds prior to T cell stimulation by respective αCD3/αCD28 Dynabeads™. For detection, plates were read on the Envision and percent inhibition and IC50 were determined by Smart fit in Genedata Analyzer.
For Jurkat cells: 35 μL cell suspension were dispensed at a density of 30,000 cells/well in 384-well plates containing HBSS (Gibco, 14025076)+0.1% BSA). 10-point logarithmic serial dilution of test compounds in DMSO were prepared by a Hamilton automated liquid handling robot and 35 nL was transferred into each well by an Echo liquid handler. After 60 min. pre-incubation, the cells were stimulated by adding 5 μL human T activator αCD3/αCD28 Dynabeads™ (Gibco, 11132D) at 1.2×107 beads/mL for 15 minutes at 37° C. Detection of Ser376 phosphorylation status was accomplished by first adding 10 μL of 5×AlphaLISA lysis buffer (Perkin Elmer, ALSU-PSLP-A500) to each well of the cell plate using a Multidrop Combi (5840300), followed by 20 minutes shaking. 10 μL cell lysate from each treatment were then transferred to a white 384-well plate (Corning 3572) and incubated with AlphaLISA acceptor beads for one hour (AlphaLISA SureFire Ultra p-SLP76(Ser376), Perkin Elmer, ALSU-PSLP-A500), and donor beads for additional 2 hours at room temperature in the dark.
For EL-4.IL2 assay, 50 μL cell suspension at 2×10^6 cells/mL in HBSS were first dispensed into 384-well plates and then 50 nL serial dilutions of test compounds were spotted to each well by an Echo liquid handler. After 60 min. incubation at 37° C., cells were stimulated by adding 5 μL mouse T cell activator αCD3/αCD28 Dynabeads™ (ThermFisher Scientific, 11452D) for 30 minutes at 37° C. After a brief spin and subsequent supernatant discarded, 12.5 μL of Cisbio lysis buffer were added to each well and plates were shaken for 30 min at 450 RPM. For detection, 4 μL prepared HTRF antibody mixture (Cisbio, 63ADK000U) in detection buffer were mixed with 16 μl of cell lysate and plates were incubated at room temperature for 19 hours prior to EnVision reading.

[2] = target: full-length human HPK1 (MAP4K1) (Homo sapiens (Human), UniProt Q92918); assay: HPK1 Kinase Assay (Biochemical Assay), ADP-Glo; conditions: GST-HPK1 3.2 nM, 10 μM ATP, MBP substrate, read-out: HPK1 enzymatic IC50
From the text: HPK1 Kinase Assay (Biochemical Assay).
A recombinant fusion protein consisting of full-length human HPK1 (MAP4K1) with an N-terminal Glutatione S-transferase (GST) tag was produced in insect cells Sf21 using the baculovirus expression system. GST-HPK1 protein was purified from cell lysates by glutathione Sepharose affinity chromatography. The assay is run in three continuous steps: 1) the HPK1 enzymatic kinase reaction, 2) an ATP depletion, and 3) the ADP detection, the steps 2 and 3 are performed with ADP-Glo™ Kinase Assay kit from Promega (V9101). Test compounds were prepared by 10-point serial dilution in dimethyl sulfoxide (DMSO) and 100 nL of each dilution was spotted onto a 384-well Optiplate (Perkin Elmer and Cat #6007299) by Labcyte Echo. 5 μL kinase reaction buffer (0.02% Brij-35, 2 mM DTT, 50 mM HEPES pH 7.5, MgCl2 10 mM, BSA 0.01% and O-glycerophosphate 12.5 mM) containing HPK1 (3.2 nM) enzyme was transferred to each well and incubated for 15 minutes at room temperature at 60% humidity. The enzymatic reaction was started by adding 5 μl of Start-Mix (10 μM ATP and 3.235 μM MBP). After 120 minutes, the reaction was stopped by adding 5 μL of ADP-Glo reagent (Promega, V9101) and incubating for 40 min. in the dark at 23° C. To determine the level of ADP, 10 μl ADP-Glo Detection solution was added and incubated for 1 hour at 23° C. in the dark. The plate was transferred to a Perkin Elmer EnVision (2104 Multilabel Reader) for luminescence detection and percent inhibition activity and IC50 value were determined using Genedata Screener.

HPK1 (SLP76 phosphorylation at Ser376 in Jurkat and EL-4 cells), sequence (Q92918 whole entry, looked up): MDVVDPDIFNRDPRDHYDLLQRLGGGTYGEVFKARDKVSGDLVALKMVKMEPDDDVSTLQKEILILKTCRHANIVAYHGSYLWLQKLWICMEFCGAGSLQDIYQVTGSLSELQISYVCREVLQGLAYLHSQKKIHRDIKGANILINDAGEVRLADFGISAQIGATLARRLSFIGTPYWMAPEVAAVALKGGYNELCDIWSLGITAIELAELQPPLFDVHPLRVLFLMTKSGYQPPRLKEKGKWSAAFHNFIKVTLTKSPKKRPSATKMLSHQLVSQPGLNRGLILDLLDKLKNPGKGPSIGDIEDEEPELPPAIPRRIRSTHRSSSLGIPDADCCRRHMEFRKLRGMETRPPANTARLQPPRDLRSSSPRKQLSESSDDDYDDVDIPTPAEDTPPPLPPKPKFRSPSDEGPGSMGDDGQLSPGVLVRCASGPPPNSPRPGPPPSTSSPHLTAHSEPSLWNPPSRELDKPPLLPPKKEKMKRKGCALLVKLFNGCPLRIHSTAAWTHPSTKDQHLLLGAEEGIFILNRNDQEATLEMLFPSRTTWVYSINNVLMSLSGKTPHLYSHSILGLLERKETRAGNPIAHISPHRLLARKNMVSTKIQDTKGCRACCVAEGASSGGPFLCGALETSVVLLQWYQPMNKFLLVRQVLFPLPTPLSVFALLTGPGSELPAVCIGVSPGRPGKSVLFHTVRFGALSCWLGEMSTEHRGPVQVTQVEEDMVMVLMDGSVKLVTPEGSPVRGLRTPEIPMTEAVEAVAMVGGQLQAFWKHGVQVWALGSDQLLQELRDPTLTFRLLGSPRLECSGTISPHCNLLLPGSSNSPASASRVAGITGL
full-length human HPK1 (MAP4K1), sequence (Q92918 whole entry): as the sequence (Q92918 whole entry, looked up) above

`Cc1c(N2CCc3cnc(Nc4ccc([C@H](C)S(C)(=O)=O)cc4)nc3C2)cnc2c1NCCO2` (single isomer, unassigned) [Example 157] showed an IC50 [1] of under 500 nM and an IC50 [2] of under 100 nM.

`Cc1c(N2CCc3cnc(Nc4ccc([C@@H](C)S(C)(=O)=O)cc4)nc3C2)cnc2c1NCCO2` (single isomer, unassigned) [Example 158] was tested, and the IC50 [1] was under 500 nM and the IC50 [2] was under 100 nM.

Compound `Cc1c(N2CCc3cnc(Nc4ccc([C@H]5CCCS5(=O)=O)cc4)cc3C2)cnc2c1NCCO2` (single isomer, unassigned) [Example 169] has an IC50 [1] of under 500 nM and an IC50 [2] of under 100 nM.

`Cc1c(N2CCc3cnc(Nc4ccc([C@@H]5CCCS5(=O)=O)cc4)cc3C2)cnc2c1NCCO2` (single isomer, unassigned) [Example 170] was tested, and the IC50 [1] was under 500 nM and the IC50 [2] was under 100 nM.

`Cc1c(N2CCc3cnc(Nc4ccc(NCCN(C)C)c(F)c4)nc3C2)cnc2c1NCCO2` [Example 1, N1-[2-(dimethylamino)ethyl]-2-fluoro-N4-(7-{8-methyl-1H,2H,3H-pyrido[2,3-b][1,4]oxazin-7-yl}-5H,6H,7H,8H-pyrido[3,4-d]pyrimidin-2-yl)benzene-1,4-diamine] showed an IC50 [1] of under 500 nM and an IC50 [2] of under 100 nM.

Work on `Cc1cc(Nc2cc3c(cn2)CCN(c2cnc4c(c2Cl)NCCO4)C3)ccc1NC(=O)CN1CCC1` [Example 2, 2-(azetidin-1-yl)-N-{4-[(6-{8-chloro-1H,2H,3H-pyrido[2,3-b][1,4]oxazin-7-yl}-5,6,7,8-tetrahydro-2,6-naphthyridin-3-yl)amino]-2-methylphenyl}acetamide] yielded an IC50 [1] of under 500 nM and an IC50 [2] of under 100 nM.

`Cc1cc(Nc2ncc3c(n2)CN(c2cnc4c(c2C)NCCO4)CC3)ccc1NC(=O)CN1CCC1` [Example 3, 2-(azetidin-1-yl)-N-{2-methyl-4-[(7-{8-methyl-1H,2H,3H-pyrido[2,3-b][1,4]oxazin-7-yl}-5H,6H,7H,8H-pyrido[3,4-d]pyrimidin-2-yl)amino]phenyl}acetamide] showed an IC50 [1] of under 500 nM and an IC50 [2] of under 100 nM.

With `Cc1c(N2CCc3cnc(Nc4ccc(NCCN5CCOCC5)c(F)c4)cc3C2)cnc2c1NCCO2` [Example 4, 2-fluoro-N4-(6-{8-methyl-1H,2H,3H-pyrido[2,3-b][1,4]oxazin-7-yl}-5,6,7,8-tetrahydro-2,6-naphthyridin-3-yl)-N1-[2-(morpholin-4-yl)ethyl]benzene-1,4-diamine] the IC50 [1] was under 500 nM and the IC50 [2] was under 100 nM.

Compound `Cc1c(N2CCc3cnc(Nc4cnc(CS(C)(=O)=O)c(Cl)c4)nc3C2)cnc2c1NCCO2` [Example 5, 5-chloro-6-(methanesulfonylmethyl)-N-(7-{8-methyl-1H,2H,3H-pyrido[2,3-b][1,4]oxazin-7-yl}-5H,6H,7H,8H-pyrido[3,4-d]pyrimidin-2-yl)pyridin-3-amine] has an IC50 [1] of over 1000 nM and an IC50 [2] of under 100 nM.

Compound `Cc1c(N2CCc3cnc(Nc4ccc(NCCN5CCOCC5)c(F)c4)nc3C2)cnc2c1NCCO2` [Example 6, 2-fluoro-N4-(7-{8-methyl-1H,2H,3H-pyrido[2,3-b][1,4]oxazin-7-yl}-5H,6H,7H,8H-pyrido[3,4-d]pyrimidin-2-yl)-N1-[2-(morpholin-4-yl)ethyl]benzene-1,4-diamine] has an IC50 [1] of under 500 nM and an IC50 [2] of under 100 nM.

With `Cc1c(N2CCc3cnc(Nc4cc5n(n4)CC(=O)N(C(C)C)CC5)cc3C2)cnc2c1NCCO2` [Example 7, 2-[(6-{8-methyl-1H,2H,3H-pyrido[2,3-b][1,4]oxazin-7-yl}-5,6,7,8-tetrahydro-2,6-naphthyridin-3-yl)amino]-6-(propan-2-yl)-4H,5H,6H,7H,8H-pyrazolo[1,5-d][1,4]diazepin-7-one] the IC50 [1] was under 500 nM and the IC50 [2] was under 100 nM.

Compound `Cc1cc(Nc2cc3c(cn2)CCN(c2cnc4c(c2C)NCCO4)C3)ccc1NC(=O)CN1CCC1` [Example 9, 2-(azetidin-1-yl)-N-{2-methyl-4-[(6-{8-methyl-1H,2H,3H-pyrido[2,3-b][1,4]oxazin-7-yl}-5,6,7,8-tetrahydro-2,6-naphthyridin-3-yl)amino]phenyl}acetamide] has an IC50 [1] of under 500 nM and an IC50 [2] of under 100 nM.

`Cc1cc(Nc2ncc3c(n2)CN(c2cnc4c(c2C)NCCO4)CC3)ccc1NC(=O)CN1CCCC1` [Example 10, N-{2-methyl-4-[(7-{8-methyl-1H,2H,3H-pyrido[2,3-b][1,4]oxazin-7-yl}-5H,6H,7H,8H-pyrido[3,4-d]pyrimidin-2-yl)amino]phenyl}-2-(pyrrolidin-1-yl)acetamide] was tested, and the IC50 [1] was under 500 nM and the IC50 [2] was under 100 nM.

`Cc1c(N2CCc3cnc(Nc4ccc(NC(=O)CN5CCOCC5)cc4)nc3C2)cnc2c1NCCO2` [Example 12, N-{4-[(7-{8-methyl-1H,2H,3H-pyrido[2,3-b][1,4]oxazin-7-yl}-5H,6H,7H,8H-pyrido[3,4-d]pyrimidin-2-yl)amino]phenyl}-2-(morpholin-4-yl)acetamide] showed an IC50 [1] of under 500 nM and an IC50 [2] of under 100 nM.

`Cc1c(N2CCc3cnc(Nc4ccc5c(c4)CNC5(C)C)nc3C2)cnc2c1NCCO2` [Example 13, 1,1-dimethyl-N-(7-{8-methyl-1H,2H,3H-pyrido[2,3-b][1,4]oxazin-7-yl}-5H,6H,7H,8H-pyrido[3,4-d]pyrimidin-2-yl)-2,3-dihydro-1H-isoindol-5-amine] showed an IC50 [1] of under 500 nM and an IC50 [2] of under 100 nM.

Compound `Cc1cc(Nc2cc3c(cn2)CCN(c2cnc4c(c2C)NCCO4)C3)ccc1NCCN(C)C` [Example 14, N1-[2-(dimethylamino)ethyl]-2-methyl-N4-(6-{8-methyl-1H,2H,3H-pyrido[2,3-b][1,4]oxazin-7-yl}-5,6,7,8-tetrahydro-2,6-naphthyridin-3-yl)benzene-1,4-diamine] has an IC50 [1] of under 500 nM and an IC50 [2] of under 100 nM.

For `Cc1cc(Nc2cc3c(cn2)CCN(c2cnc4c(c2C)NCCO4)C3)ccc1NCCN1CCOCC1` [Example 15, 2-methyl-N4-(6-{8-methyl-1H,2H,3H-pyrido[2,3-b][1,4]oxazin-7-yl}-5,6,7,8-tetrahydro-2,6-naphthyridin-3-yl)-N1-[2-(morpholin-4-yl)ethyl]benzene-1,4-diamine], the IC50 [1] was 500 to 1000 nM and the IC50 [2] was under 100 nM.

For `COc1cccc(F)c1N1CCc2cnc(Nc3cnc4c(c3)CN(C)CC4)nc2C1` [Example 120, 7-(2-fluoro-6-methoxyphenyl)-N-(6-methyl-5,6,7,8-tetrahydro-1,6-naphthyridin-3-yl)-5,6,7,8-tetrahydropyrido[3,4-d]pyrimidin-2-amine], the IC50 [1] was over 1000 nM.

In the case of `COCCS(=O)(=O)Cc1ccc(Nc2cc3c(cn2)CCN(c2cnc4c(c2C)NCCO4)C3)cc1` [Example 172, N-{4-[(2-methoxyethanesulfonyl)methyl]phenyl}-6-{8-methyl-1H,2H,3H-pyrido[2,3-b][1,4]oxazin-7-yl}-5,6,7,8-tetrahydro-2,6-naphthyridin-3-amine], the IC50 [2] is reported as under 100 nM.

Compound `Cc1cc(Nc2ncc3c(n2)CN(c2cnc4c(c2Cl)NCCO4)CC3)ccc1CS(C)(=O)=O` [Example 177, 7-{8-chloro-1H,2H,3H-pyrido[2,3-b][1,4]oxazin-7-yl}-N-[4-(methanesulfonylmethyl)-3-methylphenyl]-5H,6H,7H,8H-pyrido[3,4-d]pyrimidin-2-amine] has an IC50 [2] of under 100 nM.
